Laboratory results: US20080306057A1, “P13K Inhibitors for the Treatment of Endometriosis” (LABORATORIES SERONO SA, priority 2005, published 2008)
Where two headings read alike, the source gives them in different places.

Assays:
endometriosis-like foci = experiment: Rat model of endometriosis (autologous uterine horn fragment transplant); type: in vivo
Method: Endometriosis was induced in rats as described earlier (D'Antonio et al 2000). In brief, autologous uterine horn fragment was transplanted onto the inner surface of the abdominal wall in rat. Three weeks following transplantation, the size and the viability of the engrafted tissue was measured. One week after the confirmation of the tissue attachment, treatments were started. The control group received the vehicle, the PI3K inhibitor-1 was administered orally (po) at a single dose of 30 mg/kg per day. Treatment with the inhibitor was conducted for nine days, animals were anaesthetized 2 hr following the last treatment and blood samples were collected. Surface area of the endometriosis-like foci was measured. The endometriotic-like foci was removed for histology.

endometriosis = conditions: cited from earlier work
[1] = tested on: endometriotic lesions from human endometrial tissue; experiment: Xenograft nude mouse model of endometriosis; type: in vivo, nude mice
Method: Human endometrial tissue was injected in ovarectomized nude mice to establish the disease (Bruner-Tran et al. 2002). In brief, endometrial biopsies obtained from normal volunteers or from endometriotic patients were cut into small pieces and cultured in the presence of estradiol for 24 h. Treated tissues, were injected either subcutaneously or intraperitoneally into ovarectomized nude mice with estradiol implant. Within 2-4 days of injection, ectopic endometriotic lesions develop in animals. Treatment with either progesterone or PI3K inhibitor-1 was started 10 days following the injection of tissue. The compound was administered at a dose of 10 mg/kg and 30 mg/kg/animal for 28 days. […] Following the completion of treatment, animals were sacrificed, lesions developed from the transplanted tissue found in both subcutaneous and intraperitoneal sites, were measured (both size and number).

[2] = tested on: endometriotic cells (12Z cells); experiment: Induction of cell death in endometriotic cells, crystal violet staining; type: cell-based, human; conditions: for EC50: Homo sapiens, 12Z, crystal violet staining
From the text: It is well established that the glandular and stromal tissues from the eutopic endometrium implant in ectopic sites leading to endometriosis. Survival of the ectopic implants is due to a reduced cell death (apoptosis) of these implants, and is presumed to be due to increased expression of survival cell signaling pathways. Proteins or specific small molecule compounds that induce target-specific cell-death of ectopic endometriotic cells without affecting eutopic endometrium or other normal cells could be used as a treatment for eliminating endometriosis. In this regard, we examined the effect of PI3K inhibitor-1 (5-Quinoxalin-6-ylmethylene-thiazolidine-2,4-dione) on its ability to induce cell death of endometriotic cells (12Z cells), an immortalized human epithelial endometriotic cell (Zeitvogel et al. 2001). These cells grow in culture and secrete cytokines in response to TNFα that have been reported to be elevated in the peritoneal fluid of endometriotic patients. The 12Z cells were treated with PI3K inhibitor-1 for 24 h and cell death was measured by crystal violet staining. Since the peritoneal fluids contain elevated concentrations of TNFα, the inhibitor was also tested in the presence of this cytokine. Dead cells get detached from the tissue culture plate and washed away during staining with crystal violet. The intensity of the color will determine the extent of live cells present in the plate. […] TNFα alone had no effect of cell viability (data not shown).

[3] = 10 mg/kg × 28 days, listed as PI3K inhibitor
[4] = 30 mg/kg × 28 days, listed as PI3K inhibitor

## antide [reference compound]
endometriosis-like foci; for comparison, data not shown
  Regression of established endometriotic lesions: 94%

## C#C[C@]1(O)CC[C@H]2[C@@H]3CCC4=Cc5oncc5C[C@]4(C)[C@H]3CC[C@@]21C [Danazol]
endometriosis; after up to 4 years
  Recurrence rate: 40%-50
endometriosis; endometriosis patients
  Patients suffering from pain with improved symptoms: 66-100%

## O=C1NC(=O)C(=Cc2ccc3nccnc3c2)S1 [PI3K inhibitor-1, 5-Quinoxalin-6-ylmethylene-thiazolidine-2,4-dione]
[1]; 10 mg/kg and 30 mg/kg for 28 days
  Effect on the uterine weight and size of the animals: no effect
[1]; 10 mg/kg × 28 days
  Lesion (% Progesterone) Compared to progesterone treated group, decrease: 53% Decrease
  Lesion size, decrease: 10% Decrease
[1]; [3]
  Lesion (% Progesterone) Compared to progesterone treated group, decrease: 53%
  Lesion size, decrease: 10%
[1]; 30 mg/kg × 28 days
  Lesion (% Progesterone) Compared to progesterone treated group, decrease: 80% Decrease
  Lesion size, decrease: 30% Decrease
[1]; [4]
  Lesion (% Progesterone) Compared to progesterone treated group, decrease: 80%
  Lesion size, decrease: 30%
[2]; 24 h
  Extent of cell death induced, with versus without TNFα: greater in the presence of TNFα
[2]; 24 h, either alone or in the presence of TNFα
  Amount of live cells in culture: reduce the amount of live cells in culture
[2]; in the presence of 15 ng/ml of TNFα, 24 h, read-out: Concentration required to induce 50% cell death (EC50), +TNFα
  EC50: 6.4 µM
[2]; inhibitor alone, 24 h, read-out: Concentration required to induce 50% cell death (EC50), Alone
  EC50: > 10 µM
endometriosis-like foci; 30 mg/kg per day po, nine days
  Regression of established endometriotic lesions: 64%

## TNFα
[2]; TNFα alone, data not shown
  Cell viability: no effect
